Assay results taken from patent publication US3935309A, “Synergistic combinations of phosphonomycin and bacteriostatic agents” (Merck & Co., Inc., priority 1974, dated 1976).
Several values for one entry are separate records, joined by “and”; a condition that tells them apart may be missing. Equal entries are not always repeated.

Experiments:
[1] = test system: Pseudomonas aeruginosa 3210; assay: Combined antibiotic therapy of experimental infection in mice (Example 5); assay type: in vivo, mice infected with Pseudomonas aeruginosa 3210; settings: 10 LD50
Source text: (§1) For example, using Escherichia coli 2017 as the infecting agent, sodium phosphonomycin was titrated alone and in the presence 5 and also in the presence of 0.5γtetracycline, while tetracycline was titrated alone and in the presence of 50γ, and also in the presence of 5γof sodium phosphonomycin. The two drugs were given by the subcutaneous route at separate sites on the ventral surface of the mouse. Such therapy was given only at the time of infection for the Escherichia coli and Pseudomonas aeruginosa tests but both at the time of infection and 6 hours later for all other tests. Infection was given intraperitoneally using broth suspensions of the test organism.

Escherichia coli 2017 = assay: Combined antibiotic therapy of Escherichia coli infection in mice (Example 5); assay type: in vivo, mice infected with Escherichia coli 2017
Source text: as §1

[2] = test system: test organisms of Example 1; assay: Summary of the twelve combination synergy tests (Example 1); assay type: cell-based
Method: (§2) The MIC (minimum inhibitory concentration) of phosphonomycin and each of the other antibiotics by itself was determined before the combination synergy experiment was begun, as follows: 2 ml. of a double strength solution in sterile distilled water of the highest strength to be tested (usually 1000γ) was added to a tube of double strength nutrient broth (NB) and mixed thoroughly. Two-fold serial dilutions were then made by transferring 2 ml. to the next tube (1 × NB) and so on for approximately 12 tubes. The tubes were inoculated with one drop each of a 1:50 dilution of a culture adjusted to a Lumetron 60 reading in NB + 0.2% yeast extract so as to provide a concentration of cells of approximately 25,000/ml. The tubes were then incubated at 37°C. and examined for growth at 24, 48 and 72 hours.
In the combination experiment, the MIC value obtained as described above was used as approximately the midpoint of the range to be tested for each of the two antibiotics of the combination. In a manner similar to the above, two-fold dilutions of the first substance in the combination were made except that 1.8 ml. volumes were used and a 2.2 × strength solution of both the antibiotic and the NB were made. […]

Proteus vulgaris = assay: MIC by two-fold serial broth dilution, alone and in combination (Example 1); assay type: cell-based
Method: as §2
(§3) In the combination experiment, the MIC value obtained as described above was used as approximately the midpoint of the range to be tested for each of the two antibiotics of the combination. In a manner similar to the above, two-fold dilutions of the first substance in the combination were made except that 1.8 ml. volumes were used and a 2.2 × strength solution of both the antibiotic and the NB were made. The second antibiotic of the combination was added to duplicate rows of serial dilutions of the first substance as follows: 0.2 ml. in NB of a [formula] and a [formula] respectively, of the second substance was added to each tube in a row of serial dilutions of the first antibiotic. The final concentration that resulted enabled the determination of the effect of both MIC/4 and MIC/8 of each substance in the presence of from approximately 32 MIC to [formula] of the other. Inocula were added as in the initial single MIC experiment.

Staphylococcus aureus [3] = assay: as above; assay type: cell-based
Method: as §2, §3

Pseudomonas stutzeri = assay: as above; assay type: cell-based
Method: as §2, §3

Klebsiella pneumoniae = assay: as above; assay type: cell-based
Method: as §2, §3

Pseudomonas aeruginosa = assay: as above; assay type: cell-based
Method: as §2, §3

Staphylococcus aureus [4] = assay: criss-cross MIC method in nutrient broth (Example 2); assay type: cell-based; settings: 2nd substance chloramphenicol (CLM)
Method: This method involved the simultaneous determination of the MIC (minimum inhibitory concentration) of each member of a pair of antibiotics and of combinations of the two in nutrient broth (NB) containing 0.2% yeast extract (YE). Serial two-fold dilutions were made throughout the experiment, and the starting inoculum consisted of approximately 25,000 cells/ml. of Staphylococcus aureus. Incubation was at 37°C. for 24 hours. Identical experiments were performed on two different days.

bacterial cell wall = assay: mode of action on bacteria; assay type: cell-based
Source text: In accordance with one embodiment of this invention, pathogenic bacteria are controlled by concomitantly contacting these pathogens with phosphonomycin and a bacteriostatic chemotherapeutic agent. The action of the phosphonomycin is to potentiate, augment or synergise the activity of the bacteriostatic agent. This potentiation of the bacteriostats is indeed unexpected since the bacteriostatic agents have an entirely different mode of action than phosphonomycin. […] Thus, phosphonomycin is indeed unique among antibiotics in that it is capable of potentiating the important bacteriostatic chemotherapeutic agents.

pathogenic bacteria = assay: in vitro combination tests with various pathogens (general description); assay type: cell-based
Source text: Other experimental results have shown that novobiocin, chlortetracycline and sulfisoxazole are potentiated when combined with phosphonomycin and tested with various strains of pathogenic bacteria.

Streptococcus faecalis = assay: MIC by two-fold serial broth dilution, alone and in combination (Example 1); assay type: cell-based; settings: 2nd substance novobiocin; MIC/2 instead of ≤ MIC/4
[5] = test system: Klebsiella pneumoniae "B"; assay: Combined antibiotic therapy of experimental infection in mice (Example 5); assay type: in vivo, mice infected with Klebsiella pneumoniae "B"; settings: 7 LD50
Source text: as §1

[6] = phosphonomycin titrated, novobiocin constant 100
[7] = phosphonomycin titrated, novobiocin constant 1000
[8] = chloramphenicol repeat test, 7 LD50, phosphonomycin titrated, chloramphenicol constant 5
[9] = chloramphenicol repeat test, 7 LD50, phosphonomycin titrated, chloramphenicol constant 50
[10] = chloramphenicol test 1, 9 LD50, phosphonomycin titrated, chloramphenicol constant 3
[11] = chloramphenicol test 1, 9 LD50, phosphonomycin titrated, chloramphenicol constant 30
[12] = tetracycline repeat test, 7 LD50, phosphonomycin titrated, tetracycline constant 1
[13] = tetracycline repeat test, 7 LD50, phosphonomycin titrated, tetracycline constant 10
[14] = tetracycline test 1, 9 LD50, alone
[15] = tetracycline test 1, 9 LD50, phosphonomycin titrated, tetracycline constant 0.5
[16] = tetracycline test 1, 9 LD50, phosphonomycin titrated, tetracycline constant 5

## C[C@@H]1O[C@@H]1P(=O)(O)O [Phosphonomycin, (-) (cis-1,2-epoxypropyl)phosphonic acid]
[1]; alone
  % ED50: 100%
[1]; alone, therapy at 0 hour only, phosphonomycin as sodium salt
  s.c. ED50: 1420 µg
[1]; [6]
  % ED50: 88%
  s.c. ED50: 1250 µg
[1]; [7]
  % ED50: 195%
  s.c. ED50: 2760 µg
Escherichia coli 2017; chloramphenicol repeat test, 7 LD50, alone
  % ED50: 100%
Escherichia coli 2017; chloramphenicol repeat test, 7 LD50, alone, single dose at 0 hour, phosphonomycin as sodium salt
  s.c. ED50: 276 µg
Escherichia coli 2017; chloramphenicol repeat test, 7 LD50, chloramphenicol titrated, phosphonomycin constant 5
  % ED50: 2%
Escherichia coli 2017; chloramphenicol repeat test, 7 LD50, chloramphenicol titrated, phosphonomycin constant 50
  % ED50: 19%
Escherichia coli 2017; [8]
  % ED50: 33%
  s.c. ED50: 92 µg
Escherichia coli 2017; [9]
  % ED50: 9%
  s.c. ED50: 26 µg
Escherichia coli 2017; chloramphenicol test 1, 9 LD50, alone
  % ED50: 100%
Escherichia coli 2017; chloramphenicol test 1, 9 LD50, alone, single dose at 0 hour, phosphonomycin as sodium salt
  s.c. ED50: 905 µg
Escherichia coli 2017; chloramphenicol test 1, 9 LD50, chloramphenicol titrated, phosphonomycin constant 10
  % ED50: 1%
Escherichia coli 2017; chloramphenicol test 1, 9 LD50, chloramphenicol titrated, phosphonomycin constant 100
  % ED50: 11%
Escherichia coli 2017; [10]
  % ED50: 100%
  s.c. ED50: 905 µg
Escherichia coli 2017; [11]
  % ED50: 55%
  s.c. ED50: 500 µg
Escherichia coli 2017; tetracycline repeat test, 7 LD50, alone
  % ED50: 100%
Escherichia coli 2017; tetracycline repeat test, 7 LD50, alone, single dose at 0 hour, phosphonomycin as sodium salt
  s.c. ED50: 350 µg
Escherichia coli 2017; [12]
  % ED50: 108%
  s.c. ED50: 380 µg
Escherichia coli 2017; [13]
  % ED50: 111%
  s.c. ED50: 390 µg
Escherichia coli 2017; tetracycline repeat test, 7 LD50, tetracycline titrated, phosphonomycin constant 0.5
  % ED50: 2%
Escherichia coli 2017; tetracycline repeat test, 7 LD50, tetracycline titrated, phosphonomycin constant 50
  % ED50: 14%
Escherichia coli 2017; [14]
  % ED50: 100%
  % ED50, Combined %: 100%
Escherichia coli 2017; tetracycline test 1, 9 LD50, alone, single dose at 0 hour, phosphonomycin as sodium salt
  s.c. ED50: 1000 µg
Escherichia coli 2017; [15]
  % ED50: 100%
  s.c. ED50: 1000 µg
Escherichia coli 2017; [16]
  % ED50: 43%
  s.c. ED50: 427 µg
Escherichia coli 2017; tetracycline test 1, 9 LD50, tetracycline titrated, phosphonomycin constant 5
  % ED50: .5%
Escherichia coli 2017; tetracycline test 1, 9 LD50, tetracycline titrated, phosphonomycin constant 50
  % ED50: 5%
[2]
  antagonism by the combination of antibiotics: in no case was there any evidence of antagonism
  tests in which potentiating effect of phosphonomycin is observed: eight of the twelve tests
Proteus vulgaris; 2nd substance chlortetracycline, MIC/2 instead of ≤ MIC/4
  Phosphonomycin MIC in presence of 2nd substance: 24 mg/L
Proteus vulgaris; 2nd substance erythromycin
  Phosphonomycin MIC in presence of ≤ MIC/4 of 2nd substance: 96
Proteus vulgaris; 2nd substance novobiocin
  Phosphonomycin MIC in presence of ≤ MIC/4 of 2nd substance: 6.8
Staphylococcus aureus [3]; 2nd substance erythromycin
  Phosphonomycin MIC in presence of ≤ MIC/4 of 2nd substance: 24
Staphylococcus aureus [3]; 2nd substance novobiocin
  Phosphonomycin MIC in presence of ≤ MIC/4 of 2nd substance: 48
Pseudomonas stutzeri; 2nd substance novobiocin
  Phosphonomycin MIC in presence of ≤ MIC/4 of 2nd substance: 16
Pseudomonas stutzeri; Stutzerimonas stutzeri, read-out: Phosphonomycin MIC
  MIC: > 220 mg/L
Klebsiella pneumoniae; 2nd substance novobiocin
  Phosphonomycin MIC in presence of ≤ MIC/4 of 2nd substance: 5.8
Klebsiella pneumoniae; Klebsiella pneumoniae, alone, read-out: Phosphonomycin MIC
  MIC: 750 mg/L
Pseudomonas aeruginosa; 2nd substance erythromycin
  Phosphonomycin MIC in presence of ≤ MIC/4 of 2nd substance: 12
Pseudomonas aeruginosa; 2nd substance novobiocin
  Phosphonomycin MIC in presence of ≤ MIC/4 of 2nd substance: 93.6
Staphylococcus aureus [4]
  Phosphonomycin MIC in presence of MIC/4 of 2nd subst.: 15.6 mg/L and 7.8 mg/L
Bacterial cell wall
  mode of action: bactericidal in action
Bacterial cell wall; certain bacterial strains exposed to the antibiotic
  spheroplasts: detection of spheroplasts
Pathogenic bacteria; almost 200 pathogenic bacteria, about 15,000 individual tests
  tests in which phosphonomycin potentiated the effect of chloramphenicol: 88%
Pathogenic bacteria; between phosphonomycin and each of chloramphenicol and erythromycin
  antagonism: no antagonism
Pathogenic bacteria; various tests with human pathogens
  antagonism: does not exhibit any antagonism
Pathogenic bacteria; with chloramphenicol, erythromycin, tetracyclines, novobiocin and sulfisoxazole, inhibition at one quarter or less of MIC of each
  synergism: acts synergistically
Streptococcus faecalis
  Phosphonomycin MIC in presence of 2nd substance: 24 mg/L
[5]; alone
  % ED50: 100%
[5]; alone, therapy at 0 and 6 hours, phosphonomycin as sodium salt
  s.c. ED50: 2130 µg
[5]; [6]
  % ED50: 52%
  s.c. ED50: 1110 µg
[5]; [7]
  % ED50: 14%
  s.c. ED50: 298 µg
